These results are taken from US5880097A, “Tethered prodrugs” (Terrapin Techologies, Inc., priority 1996, dated 1999).

*1 amine or outer side, *2 acyl side, *3 side chain or, on linkers, in order; H or OH if unused. Where a SMILES comes first, the peptide text is derived from it. [ ]: non-standard residue; d: D form. The star is where a group is joined. γGlu = O=C(O)[C@H](CCC(=O)[*:2])N[*:1]; dPhg = N[C@@H](C(=O)O)c1ccccc1; Bn = c1ccc(C*)cc1

Assay [1] has as its target T1, MRP system of human erythrocytes (Homo sapiens, UniProt P33527).
T1 construct: from tissue; host or cells: human erythrocytes (membranes; inside-out vesicles)
In words: Stimulation of basal Mg+2 stimulated ATPase activity in erythrocyte membranes. It is filed as biochemical. The settings on record: 37° C., 30 minutes; for Km / Vmax of ATPase stimulation: average of three determinations. On the procedure:
(§1) Two indirect measures of interaction of test compounds in the MRP system of human erythrocytes were used. The first was stimulation of basal Mg^+2 stimulated ATPase activity, the other was inhibition of transport of tritiated dinitrophenyl-S-glutathione.
In the first method, the method of Bartosz, M. et al, Biochem Mol Biol Int (1994) 34:521-529 was used. Briefly, the compounds were added to erythrocyte membranes in a medium containing 100 mM Tris HCl, […], 10 mM MgCl2, 1 mM ATP, 0.1 mM ouabain and 1 mM EGTA with an incubation at 37° C. for 30 minutes. Stimulation of ATPase activity was measured as described.

The target in assay [2] is T1, MRP system of human erythrocytes. As to the kind of experiment: Inhibition of uptake of tritiated DNP-glutathione conjugate by inside-out vesicles of human erythrocytes. The assay is classed as biochemical. The note with it: for inhibition of labeled conjugate (DNP-GSH) uptake: compound 1 μM, labeled DNP-GSH 5 μM, 15 minutes at 37° C., mean of three trials; for Interaction with MRP pump (reduction of transport of radiolabeled GSH analog): summary in words. How it is done: as §1
In the alternative method, the uptake of tritiated DNP-glutathione conjugate by inside-out vesicles of human erythrocytes was determined as described in Akerboom, T. P. M. et al, Biochim Biophys Acta (1992) 1103.:115-119. The labeled DNP-GSH concentration was 5 μM and the compounds were added at a final concentration of 1 μM; uptake of labeled DNP-GSH was measured after 15 minutes incubation at 37° C.

Another assay has as its target GST P1-1 (Homo sapiens, UniProt P09211). The settings on record: cited from earlier work.
A further assay deals with T2, GST A1-1 (Homo sapiens, UniProt P08263).
T2 sequence (P08263 1-222): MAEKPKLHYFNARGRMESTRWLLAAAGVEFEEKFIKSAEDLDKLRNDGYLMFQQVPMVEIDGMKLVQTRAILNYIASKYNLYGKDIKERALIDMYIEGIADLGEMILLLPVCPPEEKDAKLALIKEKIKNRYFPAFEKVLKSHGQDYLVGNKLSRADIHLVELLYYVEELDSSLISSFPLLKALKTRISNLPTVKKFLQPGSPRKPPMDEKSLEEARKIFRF
The note with it: as described in the PCT application WO 95/09866; cited from earlier work.

T1 sequence (P33527 whole entry): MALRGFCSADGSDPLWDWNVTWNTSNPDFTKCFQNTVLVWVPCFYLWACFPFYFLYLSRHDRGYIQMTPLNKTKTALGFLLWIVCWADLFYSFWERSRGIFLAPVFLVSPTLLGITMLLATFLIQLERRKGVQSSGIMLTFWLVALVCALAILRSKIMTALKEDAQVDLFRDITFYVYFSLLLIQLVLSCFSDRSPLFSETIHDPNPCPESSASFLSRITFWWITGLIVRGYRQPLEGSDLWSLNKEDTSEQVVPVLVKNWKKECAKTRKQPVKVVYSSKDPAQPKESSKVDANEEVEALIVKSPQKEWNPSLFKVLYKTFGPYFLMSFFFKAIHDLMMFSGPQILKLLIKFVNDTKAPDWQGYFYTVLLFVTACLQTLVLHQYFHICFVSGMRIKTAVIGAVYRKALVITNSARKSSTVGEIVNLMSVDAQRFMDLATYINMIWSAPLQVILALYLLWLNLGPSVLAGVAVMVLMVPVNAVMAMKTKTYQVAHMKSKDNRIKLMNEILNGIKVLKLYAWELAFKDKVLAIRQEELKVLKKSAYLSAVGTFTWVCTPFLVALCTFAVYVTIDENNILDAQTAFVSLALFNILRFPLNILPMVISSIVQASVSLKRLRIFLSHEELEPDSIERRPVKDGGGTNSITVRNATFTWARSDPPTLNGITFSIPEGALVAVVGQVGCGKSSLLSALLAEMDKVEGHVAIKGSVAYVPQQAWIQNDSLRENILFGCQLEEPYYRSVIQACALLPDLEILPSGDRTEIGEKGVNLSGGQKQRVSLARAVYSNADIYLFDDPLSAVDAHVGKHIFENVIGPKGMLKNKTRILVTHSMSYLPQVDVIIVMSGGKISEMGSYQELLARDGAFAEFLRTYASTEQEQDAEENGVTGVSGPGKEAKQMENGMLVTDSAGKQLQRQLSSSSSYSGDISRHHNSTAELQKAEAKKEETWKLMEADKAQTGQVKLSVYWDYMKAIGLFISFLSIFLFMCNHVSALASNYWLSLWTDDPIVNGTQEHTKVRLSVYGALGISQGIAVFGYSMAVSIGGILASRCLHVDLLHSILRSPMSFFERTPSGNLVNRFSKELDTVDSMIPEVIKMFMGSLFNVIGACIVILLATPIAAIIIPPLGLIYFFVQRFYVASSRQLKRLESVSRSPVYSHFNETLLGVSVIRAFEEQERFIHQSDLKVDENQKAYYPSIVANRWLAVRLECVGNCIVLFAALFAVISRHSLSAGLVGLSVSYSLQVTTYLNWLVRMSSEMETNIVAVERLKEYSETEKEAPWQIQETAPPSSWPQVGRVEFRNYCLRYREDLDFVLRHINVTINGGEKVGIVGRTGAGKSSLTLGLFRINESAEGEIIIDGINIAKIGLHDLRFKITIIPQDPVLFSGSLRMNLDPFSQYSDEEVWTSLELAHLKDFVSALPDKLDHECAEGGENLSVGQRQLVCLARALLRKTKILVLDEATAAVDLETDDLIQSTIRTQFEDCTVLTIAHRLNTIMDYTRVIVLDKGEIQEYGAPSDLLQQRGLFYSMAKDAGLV
Sequence of GST P1-1 (P09211 2-210 limits assumed): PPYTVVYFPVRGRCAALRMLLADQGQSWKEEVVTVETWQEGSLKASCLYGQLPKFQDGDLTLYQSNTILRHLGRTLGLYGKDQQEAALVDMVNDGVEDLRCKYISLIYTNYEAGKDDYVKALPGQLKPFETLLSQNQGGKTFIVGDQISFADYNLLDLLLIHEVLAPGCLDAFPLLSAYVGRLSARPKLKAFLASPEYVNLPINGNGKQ

What is called Km is the substrate concentration at which the rate is half of its maximum. With `N[C@@H](CCC(=O)N[C@@H](CSCc1ccccc1)C(=O)NCCC(=O)O)C(=O)O` [TER 106, γGlu-C(Bz)-βAla], in assay [1], the Km is 1820 µM and the “Vmax of ATPase stimulation” value is given as 209.6 mM/mg protein per hr. Moreover, in assay [2], the “inhibition of labeled conjugate (DNP-GSH) uptake” value (“inhibition of labeled conjugate” below) is recorded as 66.2% and the “Interaction with MRP pump (reduction of transport of radiolabeled GSH analog)” value was “interact with MRP so as to reduce the transport of radiolabeled GSH analog”.

Consider `N[C@@H](CCC(=O)N[C@@H](CSCc1ccccc1)C(=O)N[C@@H](C(=O)O)c1ccccc1)C(=O)O` [TER 117, γGlu-C(Bz)-.o slashed.Gly] (γGlu-Cys(Bn)-[dPhg]-OH), for which the “Stimulation of ATPase activity” value in assay [1] was “did not stimulate ATPase activity”. In addition, in assay [2], the “inhibition of labeled conjugate” value turned out to be 0.2% and the “Interaction with MRP pump (reduction of transport of radiolabeled GSH analog)” value is “does not”.

With `N[C@@H](CCC(=O)N[C@@H](CSCc1ccccc1)C(=O)NCC(=O)O)C(=O)O` [TER 222, γGlu-C(Bz)-Gly], in assay [1], the Km came out at 385 µM and the “Vmax of ATPase stimulation” value worked out at 125.9 mM/mg protein per hr. In addition, in assay [2], the “inhibition of labeled conjugate” value was 62.5% and the “Interaction with MRP pump (reduction of transport of radiolabeled GSH analog)” value is recorded as “interact with MRP so as to reduce the transport of radiolabeled GSH analog”.

On to `N[C@@H](CCC(=O)N[C@@H](CS(=O)(=O)CCOP(=O)(N(CCCl)CCCl)N(CCCl)CCCl)C(=O)N[C@@H](C(=O)O)c1ccccc1)C(=O)O` [TER 286], for which the “Susceptibility to cleavage by GST P1-1” value at GST P1-1 (as described in the PCT application WO 95/09866) was “particularly susceptible to cleavage”. Further, the “Isoenzyme specificity of prodrug” value on GST P1-1 (cells having GST complements high in the P1-1 isoform) was “has the desired isoenzyme specificity”. The “Susceptibility to cleavage by GST A1-1” value on GST A1-1 is given as “particularly susceptible to cleavage”.
